This is an account of results in patent publication US9119396B2, “Method for promoting plant growth” (SUMITOMO CHEMICAL COMPANY, LIMITED, priority 2011, dated 2015).

Holding throughout (format): in vivo
Assay [1] has as its system Rice (cultivar: Nipponbare). In words: Test Example 1: promotion of root growth in hydroponics of rice. To be noted: 1 ppm, 3 days germination + 3 days cultivation, average of 4 or 5 individuals. As to the method: Evaluation Test for Promotion of Root Growth in Hydroponics of Rice Rice (cultivar: Nipponbare) A 1/10,000 volume of each DMSO solution containing each of the present compounds 1 to 4 at 10,000 ppm was added to a Hoagland solution for hydroponics (Hoagland and Amon, California Agricultural Experiment Station 1950 Circular 347 pp. 34) at ¼ concentration to obtain a solution for hydroponics containing each of the present compounds 1 to 4 at 1 ppm. These solutions were used in the treated-group. In a non-treated group, a solution for hydroponics obtained by adding a Hoagland solution for hydroponics at ¼ concentration to a 1/10,000 volume of DMSO was used. The rice seeds were immersed in an aqueous solution of 1% sodium hypochlorite for 10 minutes, followed by 70% ethanol solution to sterilize their surfaces. After that, the seeds were washed with distilled water. The sterilized seeds were immersed in each solution for hydroponics containing the test compound at 1 ppm, and incubated at a temperature of 28° C. for 3 days under dark conditions to stimulate the germination of the seeds. Then, 30 ml of each solution for hydroponics containing the test compound at 1 ppm was dispensed into a plastic tube (20 mm in diameter×113 mm in height) covered with a cardboard on the lateral surface for blocking a light. A float made of a styrene board and a vinyl mesh was placed on the water surface of each solution for hydroponics, and the rice seeds obtained after the stimulation of germination were placed on the float. The seeds were cultivated for 3 days under the conditions of an illuminance of 4,000 lux at the top of the tube, a temperature of 26° C., a humidity of 50%, and a day length of 16 hours. The root length of the rice seedlings obtained after the cultivation was measured by using WinRHIZO system (manufactured by REGENT INSTRUMENTS). The average value of the root length in the treated group was calculated from the measurement values of 4 or 5 individuals. As a result, the root length in the treated group, wherein the plants were treated with the present compound 1, 2, 3 or 4 (at a concentration of 1 ppm in each case), was much longer than that in the non-treated group.

For assay [2], the system named is Benthamiana tobacco (Nicotiana benthamiana). Description: Test Example 9: reduction of low-temperature stress in hydroponics of tobacco. The conditions noted are these: tobacco seedlings, medium with 0.1 ppm compound for 7 days; low-temperature stress 1.5±1.0° C. 7 days, then 3 days at 22° C. As to the method:
Evaluation Test for Reduction of Low-Temperature Stress in Hydroponics of Tobacco (Nicotiana benthamiana) Benthamiana tobacco (Nicotiana benthamiana) DMSO solutions containing each of the present compounds 1, 4 and 5 at a concentration of 100 ppm were prepared. […] These media were used in the treated-group. In a non-treated group, a medium obtained by adding a 1/1,000 volume of DMSO to a Murashige-and-Skoog medium at ½ concentration was used. The seeds of tobacco (Nicotiana benthamiana) were sown on 5 μL of the medium, and incubated at 22° C. overnight. Thereto was added 45 μL of a medium containing each present compound at a concentration of 0.1 ppm, and cultivated for 7 days under the conditions of an illuminance of 4,000 lux, a temperature of 22° C. and a day length of 16 hours, thereby treating the seedlings of tobacco (Nicotiana benthamiana) with the test compound. In the non-treated group, 45 μL of a medium obtained by adding a 1/1,000 volume of DMSO to a Murashige-and-Skoog medium at ½ concentration was added, and treated in the same manner as above. The seedlings of tobacco (Nicotiana benthamiana) treated with the present compounds were cultivated for 7 days under the conditions of an illuminance of 2,000 lux, a temperature of 1.5±1.0° C., and a day length of 16 hours, thereby subjecting to low-temperature stress treatment. The plants of tobacco (Nicotiana benthamiana) subjected to low-temperature stress treatment was cultivated for 3 days under the conditions of an illuminance of 4,000 lux, a temperature of 22° C., and a day length of 16 hours, and then the green leaf area of the plants was visually evaluated. Completely dead plant was scored as 0, the plant without low-temperature stress treatment was scored as 5, the green area was rated on a 6-point scale in ⅕ increments, and the score of not less than 1 was regarded as effective in reducing the stress. As a result of visual evaluation, the green leaf area of plants in the treated group, wherein the plants were treated with the present compound 1, 4 or 5 was much larger than that in the non-treated group.

Assay [3] deals with Rice (cultivar: Nipponbare). In words: Test Example 8: promotion of root growth in hydroponics of rice. To be noted: 1 ppm, 3 days germination + 3 days cultivation, average of 4 or 5 individuals. As to the method:
Evaluation Test for Promotion of Root Growth in Hydroponics of Rice Rice (cultivar: Nipponbare) A 1/10,000 volume of a DMSO solution containing the present compound 5 at 10,000 ppm was added to a Hoagland solution for hydroponics (Hoagland and Amon, California Agricultural Experiment Station 1950 Circular 347 pp. 34) at ¼ concentration to obtain a solution for hydroponics containing the present compound 5 at 1 ppm. The solution was used in the treated-group. In a non-treated group, a solution for hydroponics obtained by adding a Hoagland solution for hydroponics at ¼ concentration to a 1/10,000 volume of DMSO was used. The rice seeds were immersed in an aqueous solution of 1% sodium hypochlorite for 10 minutes, followed by 70% ethanol solution to sterilize their surfaces. After that, the seeds were washed with distilled water. The sterilized seeds were immersed in the solution for hydroponics containing the test compound at the given concentration, and incubated at a temperature of 28° C. for 3 days under dark conditions to stimulate the germination of the seeds. […] The root length of the rice seedlings obtained after the cultivation was measured by using WinRHIZO system (manufactured by REGENT INSTRUMENTS). The average value of the root length in the treated group was calculated from the measurement values of 4 or 5 individuals. […]

Consider `COC(=O)c1cc2cccc(C(F)(F)F)c2s1` [compound 4], for which the “root length of the rice seedlings vs non-treated group” value (from here on “root length … vs non-treated group”) in assay [1] is “much longer”. Moreover, the “green leaf area of plants (visual evaluation) vs non-treated group” value in assay [2] was “much larger”.

As to `COC(=O)c1cc2c(C(F)(F)F)cccc2s1` [compound 3], the “root length … vs non-treated group” value in assay [1] is “much longer”.

For `CCOC(=O)c1cc2cc(C(F)(F)F)ccc2s1` [compound 5], the “root length … vs non-treated group” value in assay [3] was “much longer”. Further, the “green leaf area of plants (visual evaluation) vs non-treated group” value in assay [2] is reported as “much larger”.

As for `COC(=O)c1cc2ccc(C(F)(F)F)cc2s1` [compound 2], the “root length … vs non-treated group” value in assay [1] was “much longer”.
